Results from ChEMBL document CHEMBL4665641, “Lead optimization and efficacy evaluation of quinazoline-based BET family inhibitors for potential treatment of cancer and inflammatory diseases” (Bioorg Med Chem Lett, 2019).
Active and inactive are the calls of the source. No cut-off for these calls is given here.

Assays:
CYP1A2 = target: T1, CYP1A2 (Homo sapiens, UniProt P05177); assay: Inhibition of human CYP1A2 at 10 uM relative to control; assay type: ADME
T1 sequence (P05177 whole entry): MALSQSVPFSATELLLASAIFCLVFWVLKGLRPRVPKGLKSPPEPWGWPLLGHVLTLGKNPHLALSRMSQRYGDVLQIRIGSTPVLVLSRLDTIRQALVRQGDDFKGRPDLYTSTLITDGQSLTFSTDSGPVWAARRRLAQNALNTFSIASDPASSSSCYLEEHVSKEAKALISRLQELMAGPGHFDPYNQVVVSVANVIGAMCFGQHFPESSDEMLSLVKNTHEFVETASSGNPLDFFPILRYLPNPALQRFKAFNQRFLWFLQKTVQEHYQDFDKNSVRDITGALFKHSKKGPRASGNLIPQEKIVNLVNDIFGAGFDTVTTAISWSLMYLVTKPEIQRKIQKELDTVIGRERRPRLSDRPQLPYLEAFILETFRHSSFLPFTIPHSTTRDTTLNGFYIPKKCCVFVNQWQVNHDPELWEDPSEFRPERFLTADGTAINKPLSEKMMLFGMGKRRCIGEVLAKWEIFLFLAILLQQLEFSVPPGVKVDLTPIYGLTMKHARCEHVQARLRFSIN

Mus musculus [1] = assay: (§1) Antiinflammatory activity in collagen/complete freund's adjuvant-induced arthritis DBA/1 mouse model assessed as IL-2 level in rear right paw at 50 mg/kg, po administered via gavage starting from day 21 to day 41 post collagen/CFA challenge and measured on day 42 measured per mg protein (reference value: 0.2 pg); assay type: functional; conditions: time 21 day
[2] = Apparent permeability across apical to basolateral side in human Caco2 cells; assay type: ADME, cell-based; conditions: caco-2
Mus musculus [3] = assay: Antiarthritic activity in collagen/complete freund's adjuvant-induced arthritis DBA/1 mouse model assessed as reduction in inflammatory symptoms at 50 mg/kg, po administered via gavage once daily starting from day 21 to day 41 post collagen/CFA challenge and measured from day 13 to 42; assay type: functional, organism-based; conditions: time 21.0 day
Cytochrome P450 2C19 = Cytochrome P450 2C19 (Homo sapiens, UniProt P33261); assay: Inhibition of human CYP2C19 at 4.9 uM; assay type: ADME
Sequence of Cytochrome P450 2C19 (P33261 whole entry): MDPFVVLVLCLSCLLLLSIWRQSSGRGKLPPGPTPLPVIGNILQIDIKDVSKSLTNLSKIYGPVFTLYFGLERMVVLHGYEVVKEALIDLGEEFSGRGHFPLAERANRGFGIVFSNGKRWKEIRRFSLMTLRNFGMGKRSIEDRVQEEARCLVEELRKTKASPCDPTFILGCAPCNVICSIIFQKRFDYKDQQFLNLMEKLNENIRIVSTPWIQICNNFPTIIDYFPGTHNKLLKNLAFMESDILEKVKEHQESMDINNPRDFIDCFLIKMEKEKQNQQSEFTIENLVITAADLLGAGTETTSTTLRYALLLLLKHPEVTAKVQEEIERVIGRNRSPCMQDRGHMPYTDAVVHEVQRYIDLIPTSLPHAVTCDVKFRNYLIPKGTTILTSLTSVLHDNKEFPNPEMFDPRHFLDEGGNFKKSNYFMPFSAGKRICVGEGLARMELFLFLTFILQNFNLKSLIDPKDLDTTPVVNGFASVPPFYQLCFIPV

[4] = Cmax in CD-1 mouse at 2 mg/kg, iv measured after 5 mins; assay type: ADME, organism-based; parameters: route intravenous, dose 2 mg/kg; conditions: mouse, in vivo, 5 min
Cytochrome P450 2C9 = Cytochrome P450 2C9 (Homo sapiens, UniProt P11712); assay: Inhibition of human CYP2C9 at […]; assay type: ADME; conditions: dose 2.1 µM
Sequence of Cytochrome P450 2C9 (P11712 whole entry): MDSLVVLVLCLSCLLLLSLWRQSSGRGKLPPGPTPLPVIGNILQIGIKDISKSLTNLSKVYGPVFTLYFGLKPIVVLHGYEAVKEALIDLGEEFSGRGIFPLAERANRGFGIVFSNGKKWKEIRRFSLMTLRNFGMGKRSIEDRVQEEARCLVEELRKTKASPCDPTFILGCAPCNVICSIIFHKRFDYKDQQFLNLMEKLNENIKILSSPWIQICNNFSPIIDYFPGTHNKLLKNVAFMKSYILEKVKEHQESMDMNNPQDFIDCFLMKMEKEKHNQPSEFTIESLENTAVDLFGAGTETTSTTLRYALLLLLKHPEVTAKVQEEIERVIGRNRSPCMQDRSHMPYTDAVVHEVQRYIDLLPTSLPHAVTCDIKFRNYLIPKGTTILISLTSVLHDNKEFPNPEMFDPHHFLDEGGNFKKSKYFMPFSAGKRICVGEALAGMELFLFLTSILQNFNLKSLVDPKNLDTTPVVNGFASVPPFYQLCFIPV

Mus musculus [5] = assay: as §1, with “IFN-gamma” for “IL-2”, “0.78” for “0.2”; assay type: functional; conditions: time 21 day
Mus musculus [6] = assay: Antiarthritic activity in collagen/complete freund's adjuvant-induced DBA/1 mouse model of arthritis assessed as reduction in joint inflammation at 50 mg/kg, po administered via gavage starting from day 21 to day 41 post collagen/CFA challenge and measured on day 42 by H&E staining based analysis; assay type: functional, organism-based; conditions: time 21.0 day
[7] = AUC(0 to infinity) in CD-1 mouse at 2 mg/kg, iv; assay type: ADME, organism-based; parameters: time infinity, route intravenous, dose 2 mg/kg; conditions: mouse, in vivo
[8] = Toxicity in collagen/CFA induced arthritis DBA/1 mouse model assessed as body weight at 50 mg/kg, po administered via gavage starting from day 21 to day 41 post collagen/CFA challenge and measured on day 21 relative to initial weight (reference value: 94.96%); assay type: organism-based; conditions: in vivo, 504 h, time 21 day
[9] = target: T2, Bromodomain-containing protein 4 (Homo sapiens, UniProt O60885); assay: Binding affinity to human partial length BRD4 (BD2) (K333 to E460 residues) expressed in bacterial expression system by BROMOscan assay
Kasumi 1 [10] = assay: Antitumor activity against human Kasumi-1 cells xenografted in CB17 SCID mouse assessed as tumor volume at 10 mg/kg, po QD for 25 days (reference value: 2189 +/- 604 mm3); assay type: functional; conditions: time 25 day
[11] = target: Bromodomain-containing protein 2 (Homo sapiens, UniProt P25440); assay: Binding affinity to human partial length BRD2 (BD1,2) (K71 to D455 residues) expressed in bacterial expression system by BROMOscan assay
Sequence of Bromodomain-containing protein 2 (P25440 whole entry, the tested form may be a part): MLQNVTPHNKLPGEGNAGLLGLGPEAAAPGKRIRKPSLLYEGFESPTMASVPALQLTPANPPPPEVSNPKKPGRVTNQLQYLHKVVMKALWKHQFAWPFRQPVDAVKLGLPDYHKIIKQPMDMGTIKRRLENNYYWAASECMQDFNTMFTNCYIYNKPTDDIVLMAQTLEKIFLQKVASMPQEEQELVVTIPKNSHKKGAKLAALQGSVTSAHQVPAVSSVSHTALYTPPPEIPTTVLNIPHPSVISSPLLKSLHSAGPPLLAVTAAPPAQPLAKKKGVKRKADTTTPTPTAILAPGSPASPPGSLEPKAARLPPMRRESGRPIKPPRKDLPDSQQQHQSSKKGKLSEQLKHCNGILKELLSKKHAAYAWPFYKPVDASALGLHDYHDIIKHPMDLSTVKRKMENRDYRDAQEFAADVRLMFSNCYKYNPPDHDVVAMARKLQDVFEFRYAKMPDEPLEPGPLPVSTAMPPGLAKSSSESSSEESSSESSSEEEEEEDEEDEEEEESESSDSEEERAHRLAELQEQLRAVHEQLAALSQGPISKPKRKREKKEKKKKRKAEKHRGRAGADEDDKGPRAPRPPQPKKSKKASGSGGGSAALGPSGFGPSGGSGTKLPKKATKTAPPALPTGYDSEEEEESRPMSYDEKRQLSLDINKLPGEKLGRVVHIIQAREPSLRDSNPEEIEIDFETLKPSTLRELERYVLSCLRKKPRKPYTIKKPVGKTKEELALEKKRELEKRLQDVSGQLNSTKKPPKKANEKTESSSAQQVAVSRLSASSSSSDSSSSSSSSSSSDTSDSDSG

[12] = AUC(0 to infinity) in CD-1 mouse at 10 mg/kg, po; assay type: ADME, organism-based; parameters: route oral, time infinity, dose 10 mg/kg; conditions: mouse, in vivo
[13] = Efflux ratio of apparent permeability from basolateral side to apical side over apical side to basolateral side in human Caco2 cells; assay type: ADME, cell-based; conditions: caco-2
[14] = Drug metabolism in rat assessed as oxidised metabolite formation by MetID study analysis; assay type: ADME
[15] = Stability in mouse liver microsomes assessed as half life; assay type: ADME, Microsome
[16] = target: T2, Bromodomain-containing protein 4; assay: Binding affinity to human partial length BRD4 (BD1) (N44 to E168 residues) expressed in bacterial expression system by BROMOscan assay
Kasumi 1 [17] = assay: Antitumor activity against human Kasumi-1 cells xenografted in CB17 SCID mouse assessed as tumor weight at 10 mg/kg, po administered for 25 days (reference value: 2.57 +/- 0.27 g); assay type: functional; conditions: time 25 day
[18] = Drug uptake in tumor tissue of CB17 SCID mouse xenografted with human Kasumi-1 cells at 40 mg/kg, po QD for 25 days and measured after 24 hrs post last dose; assay type: ADME, organism-based, Neoplasm; conditions: time 25 day, read-out: Drug uptake
[19] = Drug uptake in tumor tissue of CB17 SCID mouse xenografted with human Kasumi-1 cells at 10 mg/kg, po QD for 25 days and measured after 24 hrs post last dose; assay type: ADME, organism-based, Neoplasm; conditions: time 25 day, read-out: Drug uptake
Kasumi 1 [20] = assay: Antitumor activity against human Kasumi-1 cells xenografted in CB17 SCID mouse assessed as inhibition of tumor growth at 40 mg/kg, po QD for 25 days; assay type: functional; conditions: Kasumi 1, po, 600 h, time 25 day, read-out: TGI
Mus musculus [21] = assay: Antiarthritic activity in collagen/complete freund's adjuvant-induced arthritis DBA/1 mouse model assessed as reduction in histological damage of hind paw at 50 mg/kg, po administered via gavage starting from day 21 to day 41 post collagen/CFA challenge and measured on day 42 by hematoxylin-eosin staining based assay; assay type: functional, organism-based; conditions: time 21.0 day
Mus musculus [22] = assay: as §1, with “IL-1 beta” for “IL-2”, “3.15” for “0.2”; assay type: functional; conditions: time 21 day
[23] = Half life in CD-1 mouse at 10 mg/kg, po; assay type: ADME, organism-based; conditions: in vivo
[24] = Oral bioavailability in CD-1 mouse at 10 mg/kg; assay type: ADME, organism-based; conditions: mouse, in vivo, 10 mg/kg
Mus musculus [25] = assay: Antiarthritic activity in collagen/complete freund's adjuvant-induced arthritis DBA/1 mouse model assessed as paw thickness at 50 mg/kg, po administered via gavage starting from day 21 to day 41 post collagen/CFA challenge and measured on day 21 by caliper analysis (reference value: 2.48 millimeter); assay type: functional; conditions: time 21 day
[26] = target: Bromodomain testis-specific protein (Homo sapiens, UniProt Q58F21); assay: Binding affinity to human partial length BRDT (BD2) (K250 to E382 residues) expressed in bacterial expression system by BROMOscan assay
[27] = Toxicity in CD1 mouse assessed as mortality at 50 to 100 mg/kg, po administered once daily for 5 days and observed for 5 days after last dose; assay type: organism-based; conditions: in vivo, 120 h, dose 50-100 mg/kg, time 5 day

Which inhibition at 10 µM (CYP1A2) does the source give for `Cc1noc(C)c1-c1ccc2nc(-c3cnn(CC(C)(C)O)c3)nc(N3CCOC[C@@H]3c3ccccc3)c2c1` here?
Its inhibition at 10 µM is less than 50%.

What about the Activity (Mus musculus [1]) of the same molecule?
Its Activity is 0.3 pg.

What about the Papp [2] of the same molecule?
Its Papp is 18.2 10^-6 cm/s.

And the Activity (Mus musculus [3])?
Its Activity is “Active”.

And the “inhibition (INH)” value (Cytochrome P450 2C19)?
The value was “Active”.

What about the Cmax [4] of the same molecule?
Its Cmax is 2337 ng/mL.

What about the INH (Cytochrome P450 2C9) of the same molecule?
Its INH is “Active”.

And the Activity (Mus musculus [5])?
Its Activity is 1.29 pg.

What about the Activity (Mus musculus [6]) of the same molecule?
The Activity was “Active”.

And the AUC [7]?
Its AUC is 5025 ng·h/mL.

What about the Activity [8] of the same molecule?
Its Activity is 101.92%.

What about the Kd [9] of the same molecule?
Its Kd is 81 nM.

What about the Activity (Kasumi 1 [10]) of the same molecule?
Its Activity is 1303 mm3.

What about the Kd [11] of the same molecule?
Its Kd is 87 nM.

What about the AUC [12] of the same molecule?
The AUC was 18927 ng·h/mL.

What about the Ratio [13] of the same molecule?
Its Ratio is 1.

What about the Drug metabolism [14] of the same molecule?
Its Drug metabolism is “Metabolite_Detected”.

And the t1/2 [15]?
Its t1/2 is 0.367 h.

What about the Kd [16] of the same molecule?
The Kd was 17 nM.

And the Activity (Kasumi 1 [17])?
The Activity was 1.51 g.

And the concentration at 600 h [18]?
The concentration at 600 h was 2260 ng/g.

What about the concentration at 600 h [19] of the same molecule?
Its concentration at 600 h is 56 ng/g.

What about the inhibition in vivo at 40 mg/kg (Kasumi 1 [20]) of the same molecule?
Its inhibition in vivo at 40 mg/kg is 98.6%.

What about the Activity (Mus musculus [21]) of the same molecule?
Its Activity is “Active”.

What about the Activity (Mus musculus [22]) of the same molecule?
Its Activity is 2.06 pg.

What about the half-life [23] of the same molecule?
The half-life was 1.7 h.

And the F [24]?
Its F is 75%.

And the Activity (Mus musculus [25])?
Its Activity is 1.83 mm.

And the Kd [26]?
The Kd was 160 nM.

What about the Activity [27] of the same molecule?
The Activity was “Non-Toxic”.
